Values of other authors as cited in US12150969B2, “Synthetically enveloped virus” (priority 2016, dated 2024).

Key:
[1] = system: Ras-dependent tumor growth; details: established cancer models

CC(C)=CCC/C(C)=C/CC/C(C)=C/CSc1ccccc1C(=O)O [FTS, S-trans, trans-farnesylthiosalicylic acid]
Ras antagonist activity (Ras): potent and especially nontoxic Ras antagonist
tumor growth and toxicity in animals [1]: inhibition of tumor growth in animals with no adverse toxicity
